In article PMC6386767, “Characterization of recombinant fructose-1,6-bisphosphatase gene mutations: evidence of inhibition/activation of FBPase protein by gene mutation” (Bioscience Reports, 2019):
Numbering of substitutions follows the chain as printed. Each block holds one compound with its values, some of them ahead of it.

Experiments:
Format in all cases: biochemical
pig kidney FBPase Y113A = target: T1, pig kidney FBPase Y113A (Sus scrofa, UniProt P00636, Y114A); experiment: Malachite Green kinetic assay, Y113A mutant; conditions: for IC50: FBP substrate 10 to 50 µM
T1 construct: His6 (C); made in house; host or cells: Escherichia coli BL21 (DE3)
T1 sequence (P00636 1-338 Y114A): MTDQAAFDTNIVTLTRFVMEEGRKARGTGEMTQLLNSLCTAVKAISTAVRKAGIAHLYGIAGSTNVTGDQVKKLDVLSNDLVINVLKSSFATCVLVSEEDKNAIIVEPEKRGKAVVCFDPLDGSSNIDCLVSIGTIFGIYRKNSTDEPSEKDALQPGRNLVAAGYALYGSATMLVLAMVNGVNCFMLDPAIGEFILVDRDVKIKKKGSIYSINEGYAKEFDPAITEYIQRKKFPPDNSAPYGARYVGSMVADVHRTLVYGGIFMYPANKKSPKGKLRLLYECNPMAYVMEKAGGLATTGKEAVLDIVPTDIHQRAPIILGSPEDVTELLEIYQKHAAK
Procedure: (§1) For the kinetic assay, a standard curve was obtained from an ammonium molybdate Malachite Green inorganic phosphate assay (OD660 nm). The purified FBPase protein was dialyzed ×3 in 50 mM Tris buffer at pH 7.5 at 4°C. For enzyme concentration, absorbency values were recorded for all five mutant proteins using spectrophotometer readings at OD280 nm. To quantitate enzyme concentration, the enzymes were calculated based on the quantity of micrograms per microliter (µg/µl) present. Final concentration of WT and mutant enzymes was between 2.5 and 5.0 µg/µl. Using a colorimetric assay as described below, specific activity (SA) was determined. At last, all kinetic and binding assays described below were performed in 50 mM Tris pH 7.5.
(§2) Kinetic assays were performed for WT and mutant enzymes to identify functional differences between the WT enzyme and the mutants. […] Readings recorded at OD660 nm for each enzyme were applied to the standard curve equation. Micromoles of inorganic phosphate were calculated to determine the SA of mutant enzymes.
(§3) For each clone, the kinetic assay was performed in duplicates of triplicates. Malachite Geen was used to detect inorganic phosphate. Two separate clones were processed independently of the same mutant. All kinetic data were fit to symmetric sigmoidal curve using Origin software based on methods previously described [[27–29]]. More specifically, for kinetic parameters established via curve fitting (shown in Tables 1–3; and in Figure 5A,B), the equation y = d + (a − d)/1 + (x/c)^b was used where ‘x’ is represented by apparent Michelis constant (Km) when y = Vmax. […] P-values were significant at <0.001 and represent a comparison with the WT enzyme.

pig kidney FBPase K112A = target: T2, pig kidney FBPase K112A (Sus scrofa, UniProt P00636, K113A); experiment: Malachite Green kinetic assay, K112A mutant; conditions: for IC50: FBP substrate 10 to 50 µM
T2 construct: His6 (C); made in house; host or cells: Escherichia coli BL21 (DE3)
T2 sequence (P00636 1-338 K113A): T1 sequence (P00636 1-338 Y114A) with K113A, A114Y
Procedure: as §1, §2, §3

pig kidney FBPase L56A = target: T3, pig kidney FBPase L56A (Sus scrofa, UniProt P00636, L57A); experiment: Malachite Green kinetic assay, L56A mutant; conditions: enzyme L56A; for IC50: FBP substrate 10 to 50 µM
T3 construct: His6 (C); made in house; host or cells: Escherichia coli BL21 (DE3)
T3 sequence (P00636 1-338 L57A): T1 sequence (P00636 1-338 Y114A) with L57A, A114Y
Procedure: as §1, §2, §3

pig kidney FBPase L73A = target: T4, pig kidney FBPase L73A (Sus scrofa, UniProt P00636, L74A); experiment: Malachite Green kinetic assay, L73A mutant; conditions: enzyme L73A; for IC50: FBP substrate 10 to 50 µM
T4 construct: His6 (C); made in house; host or cells: Escherichia coli BL21 (DE3)
T4 sequence (P00636 1-338 L74A): T1 sequence (P00636 1-338 Y114A) with L74A, A114Y
Procedure: as §1, §2, §3

pig kidney FBPase Y164A = target: T5, pig kidney FBPase Y164A (Sus scrofa, UniProt P00636, Y165A); experiment: Malachite Green kinetic assay, Y164A mutant; conditions: enzyme Y164A; for IC50: FBP substrate 10 to 50 µM
T5 construct: His6 (C); made in house; host or cells: Escherichia coli BL21 (DE3)
T5 sequence (P00636 1-338 Y165A): T1 sequence (P00636 1-338 Y114A) with A114Y, Y165A
Procedure: as §1, §2, §3

[1] = association (binding) constant from saturation curve

IC50 (pig kidney FBPase Y113A; enzyme Y113A_1): 48600 nM
IC50 (pig kidney FBPase Y113A; enzyme Y113A_2): 55300 nM
IC50 (pig kidney FBPase K112A; enzyme K112A_1): 68500 nM
IC50 (pig kidney FBPase K112A; enzyme K112A_2): 52300 nM
AMP Hill coefficient (pig kidney FBPase L56A): 2.3 (± 0.2)
IC50 (pig kidney FBPase L56A): 7350 nM
AMP Hill coefficient (pig kidney FBPase L73A): 2.1 (± 0.2)
IC50 (pig kidney FBPase L73A): 6950 nM
AMP Hill coefficient (pig kidney FBPase Y164A): 2.8 (± 0.2)
IC50 (pig kidney FBPase Y164A): 2500 nM
SMILES: Nc1ncnc2c1ncn2[C@@H]1O[C@H](COP(=O)(O)O)[C@@H](O)[C@H]1O [AMP]

Ki (pig kidney FBPase Y113A; enzyme Y113A): 250 nM
IC50 (pig kidney FBPase Y113A; enzyme Y113A_1): 1800 nM
IC50 (pig kidney FBPase Y113A; enzyme Y113A_2): 1700 nM
Ki (pig kidney FBPase K112A; enzyme K112A): 240 nM
IC50 (pig kidney FBPase K112A; enzyme K112A_1): 1500 nM
IC50 (pig kidney FBPase K112A; enzyme K112A_2): 1500 nM
Ki (pig kidney FBPase L56A): 1250 nM
IC50 (pig kidney FBPase L56A): 7500 nM
Ki (pig kidney FBPase L73A): 1350 nM
IC50 (pig kidney FBPase L73A): 7250 nM
Ki (pig kidney FBPase Y164A): 150 nM
IC50 (pig kidney FBPase Y164A): 950 nM
SMILES: O=P(O)(O)OC[C@H]1O[C@@](CO)(OP(=O)(O)O)[C@@H](O)[C@@H]1O [F2,6-BP, fructose-2,6-bisphosphate]

Ka (pig kidney FBPase Y113A; enzyme Y113A, association (binding) constant from saturation curve): 0.48 (± 0.16) mM
Hill coefficient (pig kidney FBPase Y113A; enzyme Y113A, for magnesium): 2.00 (± 0.19)
Ka (pig kidney FBPase K112A; enzyme K112A, association (binding) constant from saturation curve): 0.51 (± 0.15) mM
Hill coefficient (pig kidney FBPase K112A; enzyme K112A, for magnesium): 1.98 (± 0.15)
Ka (pig kidney FBPase L56A; [1]): 0.52(± 0.13) mM
Hill coefficient (pig kidney FBPase L56A; for magnesium): 2.75 (± 0.16)
Ka (pig kidney FBPase L73A; [1]): 0.48 (± 0.17) mM
Hill coefficient (pig kidney FBPase L73A; for magnesium): 2.95 (± 0.17)
Ka (pig kidney FBPase Y164A; [1]): 0.50 (± 0.15) mM
Hill coefficient (pig kidney FBPase Y164A; for magnesium): 2.15 (± 0.12)
SMILES: [Mg+2] [Mg^2+, magnesium]
